Numbers after ± are expanded uncertainties.
Test: wn = mass fraction of the nth substance listed
Conditions: 101 kPa, Liquid, controlled-strain rheometer (ARES-RFS, TA Instruments)

SMILES: O=C[C@H](O)[C@@H](O)[C@@H](O)[C@H](O)CO [(+)-galactose] + O
- viscosity (268.15 K, w1 = 0.3): 8.95 ± 1.3 mPa·s
- viscosity (268.15 K, w1 = 0.4): 18.84 ± 1.9 mPa·s
- viscosity (273.15 K, w1 = 0.05): 2.42 ± 0.26 mPa·s
- viscosity (273.15 K, w1 = 0.1): 2.779 ± 0.31 mPa·s
- viscosity (273.15 K, w1 = 0.15): 3.325 ± 0.33 mPa·s
- viscosity (273.15 K, w1 = 0.2): 4.27 ± 0.43 mPa·s
- viscosity (273.15 K, w1 = 0.3): 6.93 ± 0.7 mPa·s
- viscosity (273.15 K, w1 = 0.4): 14.56 ± 1.5 mPa·s
- viscosity (278.15 K, w1 = 0.05): 2.077 ± 0.21 mPa·s
- viscosity (278.15 K, w1 = 0.1): 2.4 ± 0.28 mPa·s
- viscosity (278.15 K, w1 = 0.15): 2.77 ± 0.28 mPa·s
- viscosity (278.15 K, w1 = 0.2): 3.37 ± 0.47 mPa·s
- viscosity (278.15 K, w1 = 0.3): 5.34 ± 0.54 mPa·s
- viscosity (278.15 K, w1 = 0.4): 11.17 ± 1.1 mPa·s
- viscosity (283.15 K, w1 = 0.05): 1.699 ± 0.17 mPa·s
- viscosity (283.15 K, w1 = 0.1): 2.107 ± 0.21 mPa·s
- viscosity (283.15 K, w1 = 0.15): 2.469 ± 0.25 mPa·s
- viscosity (283.15 K, w1 = 0.2): 2.76 ± 0.45 mPa·s
- viscosity (283.15 K, w1 = 0.3): 4.57 ± 0.57 mPa·s
- viscosity (283.15 K, w1 = 0.4): 9 ± 0.91 mPa·s
- viscosity (293.15 K, w1 = 0.05): 1.397 ± 0.22 mPa·s
- viscosity (293.15 K, w1 = 0.1): 1.52 ± 0.35 mPa·s
- viscosity (293.15 K, w1 = 0.15): 1.77 ± 0.31 mPa·s
- viscosity (293.15 K, w1 = 0.2): 2.1 ± 0.24 mPa·s
- viscosity (293.15 K, w1 = 0.3): 3.27 ± 0.66 mPa·s
- viscosity (293.15 K, w1 = 0.4): 6.11 ± 0.61 mPa·s

SMILES: O=C(CO)[C@@H](O)[C@H](O)[C@H](O)CO [D-fructose] + O
- viscosity (263.15 K, w1 = 0.7): 4270 ± 1100 mPa·s
- viscosity (268.15 K, w1 = 0.3): 7.97 ± 0.8 mPa·s
- viscosity (268.15 K, w1 = 0.4): 18.51 ± 1.9 mPa·s
- viscosity (268.15 K, w1 = 0.5): 54.8 ± 5.7 mPa·s
- viscosity (268.15 K, w1 = 0.6): 238 ± 27 mPa·s
- viscosity (268.15 K, w1 = 0.7): 2446 ± 500 mPa·s
- viscosity (273.15 K, w1 = 0.05): 2.345 ± 0.23 mPa·s
- viscosity (273.15 K, w1 = 0.1): 2.89 ± 0.33 mPa·s
- viscosity (273.15 K, w1 = 0.2): 4.2 ± 0.42 mPa·s
- viscosity (273.15 K, w1 = 0.3): 6.39 ± 0.78 mPa·s
- viscosity (273.15 K, w1 = 0.4): 14.02 ± 1.4 mPa·s
- viscosity (273.15 K, w1 = 0.5): 35.06 ± 3.6 mPa·s
- viscosity (273.15 K, w1 = 0.6): 148.7 ± 16 mPa·s
- viscosity (273.15 K, w1 = 0.7): 1418 ± 230 mPa·s
- viscosity (278.15 K, w1 = 0.05): 1.999 ± 0.2 mPa·s
- viscosity (278.15 K, w1 = 0.1): 2.44 ± 0.24 mPa·s
- viscosity (278.15 K, w1 = 0.2): 3.39 ± 0.52 mPa·s
- viscosity (278.15 K, w1 = 0.3): 5.5 ± 0.55 mPa·s
- viscosity (278.15 K, w1 = 0.4): 10.84 ± 1.1 mPa·s
- viscosity (278.15 K, w1 = 0.5): 25.27 ± 2.6 mPa·s
- viscosity (278.15 K, w1 = 0.6): 103.4 ± 11 mPa·s
- viscosity (278.15 K, w1 = 0.7): 843 ± 120 mPa·s
- viscosity (283.15 K, w1 = 0.05): 1.681 ± 0.17 mPa·s
- viscosity (283.15 K, w1 = 0.1): 1.991 ± 0.2 mPa·s
- viscosity (283.15 K, w1 = 0.2): 2.859 ± 0.29 mPa·s
- viscosity (283.15 K, w1 = 0.3): 4.45 ± 0.45 mPa·s
- viscosity (283.15 K, w1 = 0.4): 8.07 ± 0.81 mPa·s
- viscosity (283.15 K, w1 = 0.5): 19.44 ± 2 mPa·s
- viscosity (283.15 K, w1 = 0.6): 72 ± 7.5 mPa·s
- viscosity (283.15 K, w1 = 0.7): 509.4 ± 63 mPa·s
- viscosity (293.15 K, w1 = 0.05): 1.26 ± 0.28 mPa·s
- viscosity (293.15 K, w1 = 0.1): 1.43 ± 0.35 mPa·s
- viscosity (293.15 K, w1 = 0.2): 2.092 ± 0.21 mPa·s
- viscosity (293.15 K, w1 = 0.3): 3.07 ± 0.38 mPa·s
- viscosity (293.15 K, w1 = 0.4): 5.67 ± 0.57 mPa·s
- viscosity (293.15 K, w1 = 0.5): 14.33 ± 1.4 mPa·s
- viscosity (293.15 K, w1 = 0.6): 38.31 ± 3.9 mPa·s
- viscosity (293.15 K, w1 = 0.7): 220.7 ± 24 mPa·s

SMILES: O=C[C@H](O)[C@@H](O)[C@H](O)[C@H](O)CO [D-glucose] + O
- viscosity (268.15 K, w1 = 0.5): 50.8 ± 5.2 mPa·s
- viscosity (273.15 K, w1 = 0.05): 2.39 ± 0.59 mPa·s
- viscosity (273.15 K, w1 = 0.1): 2.908 ± 0.31 mPa·s
- viscosity (273.15 K, w1 = 0.2): 4.3 ± 0.57 mPa·s
- viscosity (273.15 K, w1 = 0.3): 8.17 ± 0.82 mPa·s
- viscosity (273.15 K, w1 = 0.4): 15.28 ± 1.5 mPa·s
- viscosity (273.15 K, w1 = 0.5): 37.31 ± 3.8 mPa·s
- viscosity (278.15 K, w1 = 0.05): 1.98 ± 0.4 mPa·s
- viscosity (278.15 K, w1 = 0.1): 2.47 ± 0.41 mPa·s
- viscosity (278.15 K, w1 = 0.2): 3.46 ± 0.45 mPa·s
- viscosity (278.15 K, w1 = 0.3): 5.94 ± 0.6 mPa·s
- viscosity (278.15 K, w1 = 0.4): 11.19 ± 1.9 mPa·s
- viscosity (278.15 K, w1 = 0.5): 26.54 ± 2.7 mPa·s
- viscosity (283.15 K, w1 = 0.05): 1.76 ± 0.35 mPa·s
- viscosity (283.15 K, w1 = 0.1): 2.02 ± 0.33 mPa·s
- viscosity (283.15 K, w1 = 0.2): 2.93 ± 0.29 mPa·s
- viscosity (283.15 K, w1 = 0.3): 4.83 ± 0.48 mPa·s
- viscosity (283.15 K, w1 = 0.4): 9.63 ± 0.97 mPa·s
- viscosity (283.15 K, w1 = 0.5): 20.52 ± 2.1 mPa·s
- viscosity (293.15 K, w1 = 0.05): 1.36 ± 0.33 mPa·s
- viscosity (293.15 K, w1 = 0.1): 1.58 ± 0.42 mPa·s
- viscosity (293.15 K, w1 = 0.2): 2.13 ± 0.26 mPa·s
- viscosity (293.15 K, w1 = 0.3): 3.46 ± 0.35 mPa·s
- viscosity (293.15 K, w1 = 0.4): 6.21 ± 0.62 mPa·s
- viscosity (293.15 K, w1 = 0.5): 13.43 ± 1.4 mPa·s

SMILES: OC[C@H]1O[C@@](CO)(O[C@H]2O[C@H](CO)[C@@H](O)[C@H](O)[C@H]2O)[C@@H](O)[C@@H]1O [D-sucrose] + O
- viscosity (268.15 K, w1 = 0.4): 25.48 ± 2.6 mPa·s
- viscosity (268.15 K, w1 = 0.5): 92.4 ± 11 mPa·s
- viscosity (268.15 K, w1 = 0.6): 491.8 ± 50 mPa·s
- viscosity (273.15 K, w1 = 0.05): 2.45 ± 0.33 mPa·s
- viscosity (273.15 K, w1 = 0.1): 2.978 ± 0.52 mPa·s
- viscosity (273.15 K, w1 = 0.2): 4.42 ± 0.45 mPa·s
- viscosity (273.15 K, w1 = 0.3): 7.19 ± 0.74 mPa·s
- viscosity (273.15 K, w1 = 0.4): 19.81 ± 2 mPa·s
- viscosity (273.15 K, w1 = 0.5): 66.8 ± 6.8 mPa·s
- viscosity (273.15 K, w1 = 0.6): 316.5 ± 32 mPa·s
- viscosity (278.15 K, w1 = 0.05): 1.91 ± 0.45 mPa·s
- viscosity (278.15 K, w1 = 0.1): 2.472 ± 0.25 mPa·s
- viscosity (278.15 K, w1 = 0.2): 3.48 ± 0.35 mPa·s
- viscosity (278.15 K, w1 = 0.3): 5.99 ± 0.6 mPa·s
- viscosity (278.15 K, w1 = 0.4): 14.22 ± 1.4 mPa·s
- viscosity (278.15 K, w1 = 0.5): 42.93 ± 4.4 mPa·s
- viscosity (278.15 K, w1 = 0.6): 228.9 ± 50 mPa·s
- viscosity (283.15 K, w1 = 0.05): 1.72 ± 0.38 mPa·s
- viscosity (283.15 K, w1 = 0.1): 2.02 ± 0.33 mPa·s
- viscosity (283.15 K, w1 = 0.2): 3.01 ± 0.38 mPa·s
- viscosity (283.15 K, w1 = 0.3): 5.06 ± 0.51 mPa·s
- viscosity (283.15 K, w1 = 0.4): 11.31 ± 1.2 mPa·s
- viscosity (283.15 K, w1 = 0.5): 31.33 ± 3.2 mPa·s
- viscosity (283.15 K, w1 = 0.6): 153.1 ± 16 mPa·s
- viscosity (293.15 K, w1 = 0.05): 1.246 ± 0.19 mPa·s
- viscosity (293.15 K, w1 = 0.1): 1.48 ± 0.33 mPa·s
- viscosity (293.15 K, w1 = 0.2): 2.38 ± 0.42 mPa·s
- viscosity (293.15 K, w1 = 0.3): 3.46 ± 0.4 mPa·s
- viscosity (293.15 K, w1 = 0.4): 7.53 ± 0.75 mPa·s
- viscosity (293.15 K, w1 = 0.5): 20.09 ± 2 mPa·s
- viscosity (293.15 K, w1 = 0.6): 83.9 ± 8.5 mPa·s
